Data as given in patent US20250188059A1, “NOVEL COMPOUND AND USE THEREOF FOR INHIBITING CHECKPOINT KINASE 2” (ARUM THERAPEUTICS INC, priority 2022, published 2025).
Where two headings read alike, the source gives them in different places.

Key:
[1] = tested on: human breast cancer cell line MCF-7; assay: Cancer cell growth inhibition test (CellTiter-Glo); type: cell-based; settings: MCF-7, 72 hours, graded, read-out: Celltiter glo analysis (IC50)
Procedure: The human breast cancer cell line MCF-7 was treated with trypsin and harvested. The number of cells was counted, and about 3000 cells/80 μl per well were inoculated into a 96 well plate (Corning) and then incubated in a 37° C. incubator for 24 hours. Thereafter, the example compounds were diluted in a culture solution at various concentrations, and each well was treated with 20 μl and stored in a cell culture incubator for 72 hours. In the case of the group administered in combination, the example compounds and cisplatin or doxorubicin were diluted in a culture solution at various concentrations, and each well was treated with 20 μl. After 72 hours, each well was treated with 30 μl of CellTiter-Glo solution (Promega), and the luminescence was read on a Victor3 multi label reader (PerkinElmer).
Relative viability (%)=(value of each test well/value of well treated with DMSO alone)×100
The results obtained for each concentration for each example compound were the average values obtained from three wells, and PRIZM software was used for analysis of the results.

[2] = biological target: Chk2 kinase (Homo sapiens (Human), UniProt O96017); assay: Chk2 kinase inhibitory activity (LanthaScreen TR-FRET); type: biochemical; settings: graded
Chain of Chk2 kinase (O96017 whole entry): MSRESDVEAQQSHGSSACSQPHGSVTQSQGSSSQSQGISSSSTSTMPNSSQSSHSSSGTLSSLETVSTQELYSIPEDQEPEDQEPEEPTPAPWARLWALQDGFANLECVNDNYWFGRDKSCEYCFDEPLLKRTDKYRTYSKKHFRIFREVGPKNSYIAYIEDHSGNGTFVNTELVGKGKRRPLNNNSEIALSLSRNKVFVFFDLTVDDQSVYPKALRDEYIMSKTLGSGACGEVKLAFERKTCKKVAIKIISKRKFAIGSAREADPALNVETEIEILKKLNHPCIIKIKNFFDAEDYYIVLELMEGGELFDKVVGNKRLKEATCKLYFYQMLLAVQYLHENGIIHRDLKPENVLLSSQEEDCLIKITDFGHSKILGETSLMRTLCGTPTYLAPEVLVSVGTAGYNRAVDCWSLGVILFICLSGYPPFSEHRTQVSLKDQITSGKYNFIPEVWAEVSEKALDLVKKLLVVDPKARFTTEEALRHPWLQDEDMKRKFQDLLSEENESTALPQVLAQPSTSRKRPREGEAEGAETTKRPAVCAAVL
Procedure: (§1) The compounds of Examples 1 to 66 were diluted at various concentrations and transferred to a 384-well plate by 5 μl, and 10 μl of a mixed solution (2×) of Chk1 kinase (Thermo, P3040) or Chk2 kinase (Thermo, PV3367) and a substrate (Thermo, PV3508) was added to wells treated with the compounds. 5 μl of an ATP solution at a 4× concentration was added to the test well and reacted at room temperature for 1 hour. 20 μl of LanthaScreen Terbium-CREB p-Ser 133 antibody (Thermo, PV3542) was added to the reaction well and incubated at room temperature for 30 minutes. Conversion data was measured by an EnVision 2014 multi label reader (PerkinElmer). The activity for each concentration was determined by the ratio (FRET ratio=FR) of the value obtained by dividing the value at 520 nm by the value at 490 nm among the emission wavelength values for each wavelength (Em520/Em490). The results obtained for each concentration of the compounds were the average values obtained in two wells, and the IC50 values of the compounds were calculated using PRIZM software for analysis of the results. IC50 in Table 7 was graded as follows.

[3] = biological target: Chk1 kinase (Homo sapiens (Human), UniProt O14757); assay: Chk1 kinase inhibitory activity (LanthaScreen TR-FRET); type: biochemical; settings: graded
Chain of Chk1 kinase (O14757 whole entry): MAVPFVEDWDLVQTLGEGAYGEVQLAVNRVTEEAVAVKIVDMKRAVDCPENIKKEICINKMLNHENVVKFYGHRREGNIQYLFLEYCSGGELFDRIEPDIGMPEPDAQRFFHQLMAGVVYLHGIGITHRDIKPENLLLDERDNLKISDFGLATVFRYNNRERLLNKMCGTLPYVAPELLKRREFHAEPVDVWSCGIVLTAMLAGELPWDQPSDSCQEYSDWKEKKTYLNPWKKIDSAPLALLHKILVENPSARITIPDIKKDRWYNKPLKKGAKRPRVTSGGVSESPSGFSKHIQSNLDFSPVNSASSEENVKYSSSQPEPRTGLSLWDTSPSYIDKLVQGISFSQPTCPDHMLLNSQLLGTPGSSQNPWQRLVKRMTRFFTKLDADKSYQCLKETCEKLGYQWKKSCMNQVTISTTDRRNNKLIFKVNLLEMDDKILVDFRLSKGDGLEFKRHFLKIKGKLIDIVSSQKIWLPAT
Procedure: as §1

Row | Compound | IC50 [1] | IC50 [2] | IC50 [3] | IC50 ([1]; Homo sapiens, MCF7, 72 h)
1 | CC1(C)Cc2c(-c3cccc(-c4cnc(N)c(C(=O)N[C@H]5CCC6(CC6)NC5)n4)c3)cnn2C1 (stereo in doubt) [Example 65, 3-amino-6-(3-(5,5-dimethyl-5,6-dihydro-4H-pyrrolo[1,2-b]pyrazol-3-yl)phenyl)-N-(4-azaspiro[2.5]octan-6-yl)pyrazine-2-carboxamide] | > 100000 nM | 10 to 100 nM | 10 to 100 nM | 
2 | Cn1cc(-c2cccc(-c3cnc(N)c(C(=O)NC4CCC5(CC5)NC4)n3)c2)cn1 (racemic) [Example 41, 3-amino-6-(3-(1-methyl-1H-pyrazol-4-yl)phenyl)-N-(4-azaspiro[2.5]octan-6-yl)pyrazine-2-carboxamide] |  | ≤ 10 nM | 10 to 100 nM | > 100000 nM
3 | Nc1ncc(-c2nccc(-c3cnn(CC(F)(F)F)c3)n2)nc1C(=O)N[C@H]1CCCNC1 [Example 39, (S)-3-amino-N-(piperidin-3-yl)-6-(4-(1-(2,2,2-trifluoroethy)-1H-pyrazol-4-yl)pyrimidin-2-yl)pyrazine-2-carboxamide] |  | ≤ 10 nM | 100 to 1000 nM | 10000 to 100000 nM
4 | Nc1ncc(-c2ccnc(-c3cnn(C4CC4)c3)c2)nc1C(=O)N[C@H]1CCCNC1 [Example 20, (S)-3-amino-6-(2-(1-cyclopropyl-1H-pyrazol-4-yl)pyridin-4-yl)-N-(piperidin-3-yl)pyrazine-2-carboxamide] |  | 10 to 100 nM | 10 to 100 nM | 10000 to 100000 nM
5 | Nc1ncc(-c2ccnc(-c3cnn(CC(F)(F)F)c3)c2)nc1C(=O)N[C@@H]1CNCC[C@H]1O [Example 14, 3-amino-N-((3R,4R)-4-hydroxypiperidin-3-yl)-6-(2-(1-(2,2,2-trifluoroethyl)-1H-pyrazol-4-yl)pyridin-4-yl)pyrazine-2-carboxamide] |  | 10 to 100 nM | 100 to 1000 nM | > 100000 nM
6 | CC(C)(O)Cn1cc(-c2cc(-c3cnc(N)c(C(=O)N[C@@H]4CNCC(F)(F)C4)n3)ccn2)cn1 [Example 33, (S)-3-amino-N-(5,5-difluoropiperidin-3-yl)-6-(2-(1-(2-hydroxy-2-methylpropyl)-1H-pyrazol-4-yl)pyridin-4-yl)pyrazine-2-carboxamide] |  | 100 to 1000 nM | > 1000 nM | 10000 to 100000 nM
7 | Cn1cc(-c2ccc(F)c(-c3cnc(N)c(C(=O)NC4CCC5(CC5)NC4)n3)c2)cn1 (racemic) [Example 40, 3-amino-6-(2-fluoro-5-(1-methyl-1H-pyrazol-4-yl)phenyl)-N-(4-azaspiro[2.5]octan-6-yl) pyrazine-2-carboxamide] |  | ≤ 10 nM | 10 to 100 nM | > 100000 nM
8 | CC1(C)Cc2c(-c3cccc(-c4cnc(N)c(C(=O)N[C@H]5CCC6(CC6)NC5)n4)c3)cnn2C1 [Example 51, (S)-3-amino-6-(3-(5,5-dimethyl-5,6-dihydro-4H-pyrrolo[1,2-b]pyrazol-3-yl)phenyl)-N-(4-azaspiro[2.5]octan-6-yl)pyrazine-2-carboxamide] | 10000 to 100000 nM | ≤ 10 nM |  | 
9 | CC(C)(O)Cn1cc(-c2cc(-c3cnc(N)c(C(=O)NC4CNC[C@@H](F)C4)n3)ccn2)cn1 (stereo partly drawn) [Example 6, 3-amino-N-((3S,5S)-5-fluoropiperidin-3-yl)-6-(2-(1-(2-hydroxy-2-methylpropyl)-1H-pyrazol-4-yl)pyridin-4-yl)pyrazine-2-carboxamide] | 10000 to 100000 nM | ≤ 10 nM |  | 
10 | CC1(C)Cc2c(-c3nccc(-c4cnc(N)c(C(=O)N[C@H]5CCC6(CC6)NC5)n4)n3)cnn2C1 [Example 63, (S)-3-amino-6-(2-(5,5-dimethyl-5,6-dihydro-4H-pyrrolo[1,2-b]pyrazol-3-yl)pyrimidin-4-yl)-N-(4-azaspiro[2.5]octan-6-yl) pyrazine-2-carboxamide] |  | ≤ 10 nM |  | 10000 to 100000 nM
11 | CC1(C)Cc2c(-c3cccc(-c4cnc(N)c(C(=O)N[C@@H]5CNC[C@H]5O)n4)c3)cnn2C1 [Example 60, 3-amino-6-(3-(5,5-dimethyl-5,6-dihydro-4H-pyrrolo[1,2-b]pyrazol-3-yl)phenyl)-N-((3R,4R)-4-hydroxypyrrolidin-3-yl)pyrazine-2-carboxamide] |  | ≤ 10 nM |  | > 100000 nM

Second part, the compound after the results:

Row | IC50 [1] | IC50 [2] | IC50 [3] | IC50 ([1]; Homo sapiens, MCF7, 72 h) | Compound
12 |  | ≤ 10 nM | 10 to 100 nM | 10000 to 100000 nM | CC(C)(O)Cn1cc(-c2cccc(-c3cnc(N)c(C(=O)N[C@@H]4CNC[C@@H](F)C4)n3)c2)cn1 [Example 29, 3-amino-N-((3S,5S)-5-fluoropiperidin-3-yl)-6-(3-(1-(2-hydroxy-2-methylpropyl)-1H-pyrazol-4-yl)phenyl)pyrazine-2-carboxamide]
13 |  | 10 to 100 nM | > 1000 nM | 10000 to 100000 nM | Cn1cc(-c2ccc(F)c(-c3cnc(N)c(C(=O)N[C@H]4CCCNC4)n3)c2)cn1 [Example 18, (S)-3-amino-6-(2-fluoro-5-(1-methyl-1H-pyrazol-4-yl)phenyl)-N-(piperidin-3-yl)pyrazine-2-carboxamide]
14 |  | 10 to 100 nM | 100 to 1000 nM | 10000 to 100000 nM | Cn1cc(-c2ccc(F)c(-c3cnc(N)c(C(=O)N[C@@H]4CNC[C@@H](F)C4)n3)c2)cn1 [Example 19, 3-amino-6-(2-fluoro-5-(1-methyl-1H-pyrazol-4-yl)phenyl)-N-((3S,5S)-5-fluoropiperidin-3-yl) pyrazine-2-carboxamide]
15 | ≤ 10000 nM | 10 to 100 nM | > 1000 nM |  | CC1(C)Cc2c(-c3ccc(F)c(-c4cnc(N)c(C(=O)N[C@H]5CCC6(CC6)NC5)n4)c3)cnn2C1 (stereo in doubt) [Example 66, 3-amino-6-(5-(5,5-dimethyl-5,6-dihydro-4H-pyrrolo[1,2-b]pyrazol-3-yl)-2-fluorophenyl)-N-(4-azaspiro[2.5]octan-6-yl)pyrazine-2-carboxamide]
16 |  | 10 to 100 nM | 100 to 1000 nM | 10000 to 100000 nM | Nc1ncc(-c2cc(-c3cnn(CC(F)(F)F)c3)ncc2F)nc1C(=O)N[C@@H]1CNC[C@@H](F)C1 [Example 2, 3-amino-6-(5-fluoro-2-(1-(2,2,2-trifluoroethyl)-1H-pyrazol-4-yl)pyridin-4-yl)-N-((3S,5S)-5-fluoropiperidin-3-yl)pyrazine-2-carboxamide]
17 |  |  | 10 to 100 nM |  | CC(C)(O)Cn1cc(-c2cc(-c3cnc(N)c(C(=O)N[C@@H]4CNC[C@@H](F)C4)n3)ccn2)cn1 [Example 34, 3-amino-N-((3S,5S)-5-fluoropiperidin-3-yl)-6-(2-(1-(2-hydroxy-2-methylpropyl)-1H-pyrazol-4-yl)pyridin-4-yl)pyrazine-2-carboxamide]
18 |  | ≤ 10 nM | 10 to 100 nM | 10000 to 100000 nM | Cn1cc(-c2cccc(-c3cnc(N)c(C(=O)N[C@@H]4CNC[C@@H](F)C4)n3)c2)cn1 [Example 17, 3-amino-N-((3S,5S)-5-fluoropiperidin-3-yl)-6-(3-(1-methyl-1H-pyrazol-4-yl)phenyl)pyrazine-2-carboxamide]
19 |  | ≤ 10 nM |  | 10000 to 100000 nM | Nc1ncc(-c2cc(-c3cnn(CC(F)(F)F)c3)ccc2O)nc1C(=O)N[C@@H]1CNC[C@@H](F)C1 [Example 23, 3-amino-N-((3S,5S)-5-fluoropiperidin-3-yl)-6-(2-hydroxy-5-(1-(2,2,2-trifluoroethyl)-1H-pyrazol-4-yl)phenyl)pyrazine-2-carboxamide]
20 |  | ≤ 10 nM |  | 10000 to 100000 nM | Nc1ncc(-c2cc(-c3cnn(CC(F)(F)F)c3)ccc2O)nc1C(=O)N[C@H]1CCCNC1 [Example 24, (S)-3-amino-6-(2-hydroxy-5-(1-(2,2,2-trifluoroethyl)-1H-pyrazol-4-yl)phenyl)-N-(piperidin-3-yl) pyrazine-2-carboxamide]
21 |  | 10 to 100 nM |  | 10000 to 100000 nM | CC1(C)Cc2c(-c3cccc(-c4cnc(N)c(C(=O)N[C@@H]5CNCC[C@H]5O)n4)c3)cnn2C1 [Example 52, 3-amino-6-(3-(5,5-dimethyl-5,6-dihydro-4H-pyrrolo[1,2-b]pyrazol-3-yl)phenyl)-N-((3R,4R)-4-hydroxypiperidine-3-yl)pyrazine-2-carboxamide]
22 |  | ≤ 10 nM |  | 10000 to 100000 nM | CC(C)(O)Cn1cc(-c2cc(-c3cnc(N)c(C(=O)N[C@H]4CCC5(CC5)NC4)n3)ccn2)cn1 [Example 7, (S)-3-amino-6-(2-(1-(2-hydroxy-2-methylpropyl)-1H-pyrazol-4-yl)pyridin-4-yl)-N-(4-azaspiro[2.5]octan-6-yl)pyrazine-2-carboxamide]
23 |  | ≤ 10 nM |  | 10000 to 100000 nM | CC1(C)Cc2c(-c3cc(-c4cnc(N)c(C(=O)N[C@@H]5CNC[C@@H](F)C5)n4)ccn3)cnn2C1 [Example 48, 3-amino-6-(2-(5,5-dimethyl-5,6-dihydro-4H-pyrrolo[1,2-b]pyrazol-3-yl)pyridin-4-yl)-N-((3S,5S)-5-fluoropiperidin-3-yl)pyrazine-2-carboxamide]
